Columns and labels:
[1] = system: B16F10 (mice melanoma) cells; test: MTT cell viability assay, B16F10; assay type: cell-based; conditions: 24 h and 48 h; 2.5, 5, 7.5 or 10 μM; vs untreated control
Description: The cells were seeded into 96-well plates at a starting density of 10^4 cells per well and cultured overnight before DEA was added to the medium for 24 h and 48 h. […] The amount of blue formazan dye formed from MTT+ was proportional to the number of live cells, and was determined with an Anthos Labtech 2010 ELISA reader at 550 nm. All experiments were run in at least 4 replicates and repeated 3 times. The effect of desethylamiodarone was measured in T24 (human urinary bladder carcinoma), A549 (human lung adenocarcinoma epithelial), B16F10 (mice melanoma), HeLa (human cervix adenocarcinoma), 4T1 (mouse mammary carcinoma) cell lines. Cells were treated with increasing concentrations of desethylamiodarone for 24 and 48 h. Cell growth was assessed by measuring metabolic activity, which reflects viability in the MTT-test in the course of 24 h, 48 h of continued exposure to desethylamiorarone. The untreated cells served as negative controls. The viability of the cells, was lower in all DEA-treated than in the control group, with the difference being statistically significant. […] B16F10 cells were incubated with the indicated concentrations (2.5, 5, 7.5 or 10 μM) of desethylamiodarone for 24 h (A) and 48 h (B) and cell viability was measured by MTT assay (filled bars). Untreated cells served as controls. […]

[2] = system: A549 human lung adenocarcinoma epithelial cell line; test: Colony formation assay, A549; assay type: cell-based; conditions: one week; 1, 1.5, 2, 2.5 or 3 μM
Description: Cells were trypsinized and plated in triplicate into 6-well plates at 500 cells/well. Cells were treated with different concentration of Dea. After 7 days of incubation, cells were washed and stained with Coomassie-blue, and the colonies containing more than 50 cells were counted. The number of colonies were determined and normalized to the number of colonies in controls. To assess the recovery ability of cells that survived treatment, long-term (7 days) colony formation assay was performed. […] A549 cells were incubated with the indicated concentrations of desethylamiodarone (1, 1.5, 2, 2.5 or 3 μM for one week and cell colonies were fixed, stained and counted. (A-B) Data are expressed as the mean±SD of ≧3 experiments; a p<0.01 is considered statistically significant.

CCCCc1oc2ccccc2c1C(=O)c1cc(I)c(OCCNCC)c(I)c1 [DEA, (2-butyl-3-benzofuranyl)[4-[2-(ethylamino)ethoxy]-3,5-diiodophenyl]-methanone]
Viability of B16F10 cells (MTT) [1]: Significantly different from control group at p<0.01
Colony formation, A549 [2]: significant decrease in the number and the size of colonies

Reference: patent US9884040B2, “Desethylamiodarone for use in cancer treatment” (PÉCSI TUDOMÁNYEGYETEM, priority 2015, dated 2018)
